For 1 sequence, cell viability, survival and behaviour and toxic effects results are on record in US8361483B2, “Epinecidin-1 as a vaccine adjuvant for enhancing immune responses” (priority 2011, dated 2013).

For one series, the system named is BHK-21 cells. Briefly: Cell proliferation assay, Epi-1 alone on BHK-21 cells. The following applies: Epi up to 1 μg/ml, 48 h, n=3. The format is cell-based, baby hamster. The text has this: Baby hamster kidney (BHK)-21 cells were purchased and maintained as per American Type Culture Collection (ATCC no. CCL10, Manassas, Va., USA) instructions. Female C3H/HeN mice, purchased from the National Laboratory Animal Breeding and Research Center (Taiwan) and BioLASCO (Taipei, Taiwan), were housed at the Laboratory Animal Facility, National Taiwan Ocean University NTOU; Keelung, Taiwan). Mice were maintained in pathogen-free sterile isolators according to institutional guidelines, and all food, water, caging, and bedding were sterilized before use. All procedures were approved by the Animal Care and Use Committee of NTOU. The 50% lethal dose (LD50) of JEV in female C3H/HeN mice was determined. The Beijing-1 JEV strain was maintained in suckling mouse brains as previously described.
BHK-21 cells in 48-well plates were assayed with CellTiter 96 Aqueous One Solution (Promega, Madison, Wis., USA) following the vendor's instructions. Epi-1 was administered together with Japanese encephalitis virus (JEV) as co-treatment; Epi-1 was administered 24 h prior to (prophylaxis) or after (curative) the JEV inoculation. After blank value subtraction, the percentage survival against control cells was calculated. […]
The effects of Epi-1 on JEV in BHK-21 cells were studied. […] At 48 h, cell viability of JEV infection was determined (FIG. 1a). […]

The nature of series [1]: Toxicity of Epi-1 alone injected i.p. in adult mice. The protocol:
Six-week-old adult C3H/HeN mice were randomly divided into five groups of 10 mice each. […] After 14 days, a re-challenge was carried out on surviving mice with 50× the LD50 of JEV. Mouse survival and activity were monitored on a daily basis for up to 25 days after the primary injection. For serological studies, serum was collected on days 4, 7, and 21 after treatment. A similar approach was followed to test immunized mice.
JEV was co-injected with or without Epi-1 at various dosages (50, 100, and 200 μg/ml) into adult mice and subsequently boosted (a second JEV challenge without Epi-1) on day 14. The survival rate of mice was recorded for 25 days.

“Also recorded” adds a separate entry of the source. Where no end group is shown, it is not given here.

As to “GFIFHIIKGLFHAGKMIHGLV [Epi-1, epinecidin-1]”, in the series with BHK-21 cells, the cell viability entry is reported as “did not affect cell viability; also recorded: no detectable cytotoxicity”. Further, the survival and behaviour entry in series [1] (200 μg/ml Epi-1 alone i.p., n=10) was “all mice survived and behaved normally”. In addition, the toxic effects entry in series [1] (Epi-1 alone, adult mice) is recorded as “No toxic effects were noted; also recorded: no detectable cytotoxicity”.
